Reference: patent publication US12637467B2, “Inhibitor of BTK and mutants thereof” (Newave Pharmaceutical Inc., priority 2019, dated 2026)
“Also recorded” adds a separate entry of the source.

Target: WT BTK (Homo sapiens, UniProt Q06187)
Experiment: In vitro dialysis assay (irreversibility assay), WT BTK
Type: biochemical
Settings: for Conclusion (WT BTK): reversible or irreversible inhibition after 24 hr dialysis; for Recovery after 24 h dialysis: 0.003 mM compound pre-incubated with 2 nM BTK for 2 hr, dialyzed 24 hr against buffer with 40 mM ATP, BTK activity vs non-dialyzed samples
Procedure: The compound-enzyme complex was dialyzed against the same buffer supplemented with 40 mM ATP for 24 hr. Cumulative dialysis factor >160,000×. After dialysis, the BTK activity was measured in the presence 40 mM ATP and 1 mM substrate peptide and compared to that in non-dialyzed samples. Assay buffer: 100 mM HEPES, pH7.5; 0.1% BSA, 0.01% Triton-X 100; 5 mM MgCl2; 1 mM DTT.

WT BTK, sequence (Q06187 whole entry): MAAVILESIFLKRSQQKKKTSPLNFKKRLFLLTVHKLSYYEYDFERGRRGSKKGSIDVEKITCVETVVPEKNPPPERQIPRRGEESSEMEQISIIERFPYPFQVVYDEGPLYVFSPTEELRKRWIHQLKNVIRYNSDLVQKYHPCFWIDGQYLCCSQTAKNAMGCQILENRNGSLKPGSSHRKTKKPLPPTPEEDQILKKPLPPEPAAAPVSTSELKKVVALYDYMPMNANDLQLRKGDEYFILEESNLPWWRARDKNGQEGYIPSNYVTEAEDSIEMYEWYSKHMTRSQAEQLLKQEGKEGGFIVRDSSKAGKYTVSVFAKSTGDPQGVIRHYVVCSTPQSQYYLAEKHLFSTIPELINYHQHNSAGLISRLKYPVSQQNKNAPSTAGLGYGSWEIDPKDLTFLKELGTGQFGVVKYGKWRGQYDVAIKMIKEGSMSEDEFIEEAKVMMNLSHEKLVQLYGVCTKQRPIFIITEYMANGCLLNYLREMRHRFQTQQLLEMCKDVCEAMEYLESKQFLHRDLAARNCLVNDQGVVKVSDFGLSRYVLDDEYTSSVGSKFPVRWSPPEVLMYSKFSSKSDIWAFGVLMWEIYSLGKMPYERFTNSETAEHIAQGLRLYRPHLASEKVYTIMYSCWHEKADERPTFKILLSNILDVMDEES

Compound	Conclusion (WT BTK)	Recovery after 24 h dialysis [%]
C=CC(=O)Nc1cc(Nc2nc(-c3ccnc(N4CCn5c(cc6c5CC(C)(C)C6)C4=O)c3CO)cn(C)c2=O)ccc1C1CN(C)C(=O)CN1C1COC1 (stereo not shown) [Example 43]	Irreversible/covalent inhibition	
C=CC(=O)Nc1cc(Nc2nc(-c3ccnc(N4CCn5c(cc6c5CC(C)(C)C6)C4=O)c3C)cn(C)c2=O)ccc1N1CCN(C2COC2)C[C@@H]1C [Example 11, (S)—N-(5-((6-(2-(7,7-dimethyl-1-oxo-1,3,4,6,7,8-hexahydro-2H-cyclopenta[4,5]pyrrolo[1,2-a]pyrazin-2-yl)-3-methylpyridin-4-yl)-4-methyl-3-oxo-3,4-dihydropyrazin-2-yl)amino)-2-(2-methyl-4-(oxetan-3-yl)piperazin-1-yl)phenyl)acrylamide]	irreversible inhibitors; also recorded: Irreversible/covalent inhibition	
C=CC(=O)Nc1cc(Nc2nc(-c3ccnc(N4CCn5c(cc6c5CC(C)(C)C6)C4=O)c3CO)cn(C)c2=O)ccc1C1C(=O)N(C)CCN1C1COC1 (stereo not shown) [Example 41]	Irreversible/covalent inhibition	~1
C=CC(=O)Nc1cc(Nc2nc(-c3ccnc(N4CCn5c(cc6c5CC(C)(C)C6)C4=O)c3CO)cn(C)c2=O)ccc1N1CCC(N2CCC(F)(F)CC2)CC1 [Example 20, N-(2-[4,4-difluoro-[1,4′-bipiperidin]-1′-yl]-5-[[6-(2-[4,4-dimethyl-9-oxo-1,10-diazatricyclo[6.4.0.0^[2,6]]dodeca-2(6),7-dien-10-yl]-3-(hydroxymethyl)pyridin-4-yl)-4-methyl-3-oxopyrazin-2-yl]amino]phenyl)prop-2-enamide]	Irreversible/covalent inhibition	~1
C=CC(=O)Nc1cc(Nc2nc(-c3ccnc(N4CCn5c(cc6c5CC(C)(C)C6)C4=O)c3CO)cn(C)c2=O)ccc1C1CN(C2COC2)CC(=O)N1C (stereo not shown) [Example 42, N-(5-[[6-(2-[4,4-dimethyl-9-oxo-1,10-diazatricyclo[6.4.0.0^[2,6]]dodeca-2(6),7-dien-10-yl]-3-(hydroxymethyl)pyri-din-4-yl)-4-methyl-3-oxopyrazin-2-yl]amino]-2-[1-methyl-4-(oxetan-3-yl)-6-oxopiperazin-2-yl]phenyl)prop-2-enamide]	Irreversible/covalent inhibition	~1
C=CC(=O)Nc1cc(Nc2nc(-c3ccnc(N4CCn5c(cc6c5CC(C)(C)C6)C4=O)c3C)cn(C)c2=O)ccc1N1CCC(N2CCOCC2)CC1.Cl [Example 18, N-(5-[[6-(2-[4,4-dimethyl-9-oxo-1,10-diazatricyclo[6.4.0.0^[2,6]]dodeca-2(6),7-dien-10-yl]-3-methylpyridin-4-yl)-4-methyl-3-oxopyrazin-2-yl]amino]-2-[4-(morpholin-4-yl)piperidin-1-yl]phenyl)prop-2-enamide hydrochloride]	Irreversible/covalent inhibition	~1
C=CC(=O)Nc1cc(Nc2nc(-c3ccnc(N4CCc5c(sc6c5CCCC6)C4=O)c3CO)cn(C)c2=O)ccc1N1CCN(C2COC2)C[C@@H]1C [Example 36, N-[5-([6-[3-(hydroxymethyl)-2-[6-oxo-8-thia-5-azatricyclo[7.4.0.0 ^[2,7]]trideca-1(9),2(7)-dien-5-yl]pyridin-4-yl]-4-methyl-3-oxopyrazin-2-yl]amino)-2-[(2S)-2-methyl-4-(oxetan-3-yl)piperazin-1-yl]phenyl]prop-2-enamide]	Irreversible/covalent inhibition	~1
C=CC(=O)Nc1cc(Nc2nc(-c3ccnc(N4CCn5c(cc6c5CC(C)(C)C6)C4=O)c3C)cn(C)c2=O)ccc1N1CCN(C2CCOCC2)C[C@@H]1C [Example 40, N-(5-[[6-(2-[4,4-dimethyl-9-oxo-1,10-diazatricyclo[6.4.0.0^[2,6]]dodeca-2(6),7-dien-10-yl]-3-methylpyridin-4-yl)-4-methyl-3-oxopyrazin-2-yl]amino]-2-[(2S)-2-methyl-4-(oxan-4-yl)piperazin-1-yl]phenyl)prop-2-enamide]	Irreversible/covalent inhibition	~1
C=CC(=O)Nc1cc(Nc2nc(-c3ccnc(N4CCn5c(cc6c5CC(C)(C)C6)C4=O)c3C)cn(C)c2=O)cnc1N1CCN(C2COC2)C[C@@H]1C [Example 46, N-(5-[[6-(2-[4,4-dimethyl-9-oxo-1,10-diazatricyclo[6.4.0.0^[2,6]]dodeca-2(6),7-dien-10-yl]-3-methylpyridin-4-yl)-4-methyl-3-oxopyrazin-2-yl]amino]-2-[(2S)-2-methyl-4-(oxetan-3-yl)piperazin-1-yl]pyridin-3-yl)prop-2-enamide]	Irreversible/covalent inhibition	~1
C=CC(=O)Nc1cc(Nc2nc(-c3ccnc(N4CCn5c(cc6c5CC(C)(C)C6)C4=O)c3CO)cn(C)c2=O)ccc1N1CCN(C2COC2)C[C@@H]1C [Example 3, (S)—N-(5-((6-(2-(7,7-dimethyl-1-oxo-1,3,4,6,7,8-hexahydro-2H-cyclopenta[4,5]pyrrolo[1,2-a]pyrazin-2-yl)-3-(hydroxymethyl)pyridin-4-yl)-4-methyl-3-oxo-3,4-dihydropyrazin-2-yl)amino)-2-(2-methyl-4-(oxetan-3-yl)piperazin-1-yl)phenyl)acrylamide]	irreversible inhibitors; also recorded: Irreversible/covalent inhibition	
C=CC(=O)Nc1cc(Nc2nc(-c3ccnc(N4CCCn5c(cc6c5CC(C)(C)C6)C4=O)c3CO)cn(C)c2=O)ccc1N1CCN([C@H]2C[C@@H](C)O[C@@H](C)C2)C[C@@H]1C [Example 38, N-(5-[[6-(2-[4,4-dimethyl-9-oxo-1,10-diazatricyclo[6.5.0.0^[2,6]]trideca-2(6),7-dien-10-yl]-3-(hydroxymethyl)pyridin-4-yl)-4-methyl-3-oxopyrazin-2-yl]amino]-2-[(2S)-2-methyl-4-[(2R,4r,6S)-2,6-dimethyloxan-4-yl]piperazin-1-yl]phenyl)prop-2-enamide]	Irreversible/covalent inhibition	~1
C=CC(=O)Nc1cc(Nc2nc(-c3ccnc(N4CCc5c(sc6c5CCCC6)C4=O)c3C)cn(C)c2=O)ccc1N1CCN(C2COC2)C[C@@H]1C [Example 44, (S)—N-(2-(2-methyl-4-(oxetan-3-yl)piperazin-1-yl)-5-((4-methyl-6-(3-methyl-2-(1-oxo-3,4,5,6,7,8-hexahydrobenzo [4, 5]thieno[2,3-c]pyridin-2(1H)-yl)pyridin-4-yl)-3-oxo-3,4-dihydropyrazin-2-yl)amino)phenyl) acrylamide]	Irreversible/covalent inhibition	
C=CC(=O)Nc1cc(Nc2nc(-c3ccnc(N4CCn5c(cc6c5CC(C)(C)C6)C4=O)c3C)cn(C)c2=O)ccc1N1CCC(N2CCOCC2)CC1C [Example 17, N-(5-[[6-(2-[4,4-dimethyl-9-oxo-1,10-diazatricyclo[6.4.0.0^[2,6]]dodeca-2(6),7-dien-10-yl]-3-methylpyridin-4-yl)-4-methyl-3-oxopyrazin-2-yl]amino]-2-[(2S)-2-methyl-4-(morpholin-4-yl)piperidin-1-yl]phenyl)prop-2-enamide]	Irreversible/covalent inhibition	
C=CC(=O)Nc1cc(Nc2nc(-c3ccnc(N4CCn5c(cc6c5CC(C)(C)C6)C4=O)c3CO)cn(C)c2=O)ccc1N1CCC(N2CCOCC2)CC1C (stereo not shown) [Example 12, N-(5-((6-(2-(7,7-dimethyl-1-oxo-1,3,4,6,7,8-hexahydro-2H-cyclopenta[4,5]pyrrolo[1,2-a]pyrazin-2-yl)-3-(hydroxymethyl)pyridin-4-yl)-4-methyl-3-oxo-3,4-dihydropyrazin-2-yl)amino)-2-(2-methyl-4-morpholinopiperidin-1-yl)phenyl)acrylamide]	irreversible inhibitors; also recorded: Irreversible/covalent inhibition	
C=CC(=O)Nc1cc(Nc2nc(-c3ccnc(N4CCn5c(cc6c5CC(C)(C)C6)C4=O)c3CO)cn(C)c2=O)ccc1N1CCC(N2CCN(C)CC2)CC1 [Example 21, N-(5-[[6-(2-[4,4-dimethyl-9-oxo-1,10-diazatricyclo[6.4.0.0^[2,6]]dodeca-2(6),7-dien-10-yl]-3-(hydroxymethyl)pyridin-4-yl)-4-methyl-3-oxopyrazin-2-yl]amino]-2-[4-(4-methylpiperazin-1-yl)piperidin-1-yl]phenyl)prop-2-enamide]	Irreversible/covalent inhibition	~1
C=CC(=O)Nc1cc(Nc2nc(-c3ccnc(N4CCn5c(cc6c5CC(C)(C)C6)C4=O)c3C)cn(C)c2=O)ccc1N1CCN(C2COC2)CC1(C)C [Example 45, N-[2-[2,2-dimethyl-4-(oxetan-3-yl)piperazin-1-yl]-5-[[6-(2-[4,4-dimethyl-9-oxo-1,10-diazatricyclo[6.4.0.0^[2,6]]dodeca-2(6),7-dien-10-yl]-3-methylpyridin-4-yl)-4-methyl-3-oxopyrazin-2-yl]amino]phenyl]prop-2-enamide]	Irreversible/covalent inhibition	~1
C=CC(=O)Nc1cc(Nc2nc(-c3ccnc(N4CCn5c(cc6c5CC(C)(C)C6)C4=O)c3CO)cn(C)c2=O)ccc1N1CCN(C2CCC(F)(F)CC2)C[C@@H]1C [Example 23, N-[2-[(2S)-4-(4,4-difluorocyclohexyl)-2-methylpiperazin-1-yl]-5-[[6-(2-[4,4-dimethyl-9-oxo-1,10-diazatricyclo[6.4.0.0^[2,6]]dodeca-2(6),7-dien-10-yl]-3-(hydroxymethyl)pyridin-4-yl)-4-methyl-3-oxopyrazin-2-yl]amino]phenyl]prop-2-enamide]	Irreversible/covalent inhibition	~1
